Measured values reported in ChEMBL document CHEMBL3137667, “[Drug-induced liver injury; fourteenth updated edition of the bibliographic database of liver injuries and related drugs]” (Gastroenterol Clin Biol, 2004).

Legend:
[1] = Highest frequency of acute liver toxicity observed during clinical trials, expressed as a percentage. [column '% AIGUE' in source]; conditions: human
[2] = Presence of at least one case with successful reintroduction. [column 'REINT' in source]; conditions: human
[3] = human
[4] = human; remark: listed apart in the source
[5] = human; remark: listed apart in the source
[6] = Comments (NB not yet translated). [column 'COMMENTAIRES' in source]; conditions: human
[7] = Proposed mechanism(s) of liver damage. [column 'MEC' in source]; conditions: human
[8] = human; remark: listed apart in the source
[9] = human; remark: listed apart in the source
[10] = human; remark: listed apart in the source
[11] = Highest frequency of moderate liver toxicity observed during clinical trials, expressed as a percentage. [column '% BIOL' in source]; conditions: human
[12] = human, serum, 4383 h
[13] = human, serum
[14] = human; remark: listed apart in the source
[15] = Times to onset, minimal and maximal, observed in the indexed observations. [column 'DELAI' in source]; conditions: human
[16] = human; remark: listed apart in the source
[17] = human; remark: listed apart in the source
[18] = human, serum; remark: listed apart in the source
[19] = human; remark: listed apart in the source
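Throughout, for Hepatotoxicity (association with vascular disease): count of indexed literature references reporting vascular liver injury in humans, e.g. peliosis hepatitis, hepatic veno-occlusive disease or Budd-Chiari syndrome.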
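Throughout, for Hepatotoxicity (benign tumour): value is a count of indexed literature references citing a benign tumour confirmed by histopathology.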
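Throughout, for Hepatotoxicity (choleostasis): human cholestatic liver injury, shown by histopathology or by peak ALT or AST elevation over alkaline phosphatase ratio below 2, value counts indexed literature reports.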
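Throughout, for Hepatotoxicity (chronic liver disease): chronic liver injury confirmed by histopathology or persistently raised serum aminotransferase activity beyond 6 months, value given as the count of indexed literature references.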
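Throughout, for Hepatotoxicity (cirrhosis): value is a count of indexed literature references reporting cirrhosis confirmed by histopathology.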
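Throughout, for Hepatotoxicity (cytolytic): human cytolytic liver injury, shown by histopathology or by a ratio above 5 of peak ALT or AST elevation to alkaline phosphatase elevation, value counts indexed references.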
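Throughout, for Hepatotoxicity (granulomatous hepatitis): value is a count of indexed literature references reporting granulomatous liver disease confirmed by histopathology.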
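Throughout, for Hepatotoxicity (malignant tumour): malignant tumour confirmed by histopathology, value gives the count of indexed literature references reporting it.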
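Throughout, for Hepatotoxicity (severe hepatitis): human clinical data: severe hepatitis, meaning potentially life-threatening liver failure or clinically observed cases, the value counts how many indexed literature references report it.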
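Throughout, for Hepatotoxicity (steatosis): steatosis confirmed by histopathology, value is the count of indexed references.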

Row | SMILES | Hepatotoxicity (successful reintroduction) [2] | Hepatotoxicity (malignant tumour) [3] | Hepatotoxicity (animal toxicity known) [4] | Hepatotoxicity (steatosis) [5] | Hepatotoxicity (comment) [6] | Hepatotoxicity (mechanism) [7] | Hepatotoxicity (cirrhosis) [8] | Hepatotoxicity (granulomatous hepatitis) [9] | Hepatotoxicity (choleostasis) [10] | Hepatotoxicity (chronic liver disease) [12] | Hepatotoxicity (moderate) [13] | Hepatotoxicity (time to onset) [15] | Hepatotoxicity (association with vascular disease) [16] | Hepatotoxicity (cytolytic) [17] | Hepatotoxicity (acute) [18] | Hepatotoxicity (benign tumour) [19] | Hepatotoxicity (acute) [1] | Hepatotoxicity (moderate) [11] | Hepatotoxicity (severe hepatitis) [14] | further results
1 | CN(C)CCCN1c2ccccc2Sc2ccc(Cl)cc21 [CHLORPROMAZINE] | yes | 0 | yes | 1 | RC/PROMAZINE/THIORIDAZINE AC_ANTI-N #CBP DUCTOPENIE | Allergic, Toxic Metabolite | 8 | 2 | 50 | 6 | 9 | 1 day - 28 years | 0 | 13 | 58 | 0 | – | – | – | Hepatotoxicity (acute) ([1]; Liver): 5.3%; Hepatotoxicity (moderate) ([11]; Liver): 42%; Hepatotoxicity (severe hepatitis) ([14]; Liver): 4
2 | CN/C(=N/CCSCc1nc[nH]c1C)NC#N [CIMETIDINE] | yes | 0 | yes | 0 | RC/FAMOTIDINE I/MEBENDAZOLE | – | 0 | – | – | 1 | 29 | 2 days - 2 years | 0 | – | 28 | 0 | – | – | – | Hepatotoxicity (acute) ([1]; Liver): 0%; Hepatotoxicity (mechanism) ([7]; Liver): Allergic, Dose-dependant, Toxic Metabolite; Hepatotoxicity (granulomatous hepatitis) ([9]; Liver): 0; Hepatotoxicity (choleostasis) ([10]; Liver): 10; Hepatotoxicity (moderate) ([11]; Liver): 38%; Hepatotoxicity (severe hepatitis) ([14]; Liver): 3; Hepatotoxicity (cytolytic) ([17]; Liver): 20
3 | CC[C@H]1OC(=O)[C@H](C)[C@@H](O[C@H]2C[C@@](C)(OC)[C@@H](O)[C@H](C)O2)[C@H](C)[C@@H](O[C@@H]2O[C@H](C)C[C@H](N(C)C)[C@H]2O)[C@](C)(OC)C[C@@H](C)C(=O)[C@H](C)[C@@H](O)[C@]1(C)O [CLARITHROMYCIN] | yes | 0 | yes | 0 | AC_ANTI-N | Allergic, Dose-dependant | 0 | 0 | 6 | 0 | 47 | 1 day - 10 weeks | 0 | 9 | 13 | 0 | 5.6% | 50.6% | 4 | –
4 | O=P1(N(CCCl)CCCl)NCCCO1 (centres undefined) [CYCLOPHOSPHAMIDE ANHYDROUS] | yes | 4 | yes | 0 | CHC HNR MVO REACTIVATION_HVB | – | 0 | – | – | 0 | 16 | 2 days - 21 years | 44 | – | 18 | 0 | – | – | – | Hepatotoxicity (acute) ([1]; Liver): 2.6%; Hepatotoxicity (mechanism) ([7]; Liver): Dose-dependant; Hepatotoxicity (granulomatous hepatitis) ([9]; Liver): 0; Hepatotoxicity (choleostasis) ([10]; Liver): 2; Hepatotoxicity (moderate) ([11]; Liver): 85%; Hepatotoxicity (severe hepatitis) ([14]; Liver): 11; Hepatotoxicity (cytolytic) ([17]; Liver): 15
5 | Cc1onc(-c2c(F)cccc2Cl)c1C(=O)N[C@@H]1C(=O)N2[C@@H]1SC(C)(C)[C@@H]2C(=O)O [FLOXACILLIN] | yes | 0 | yes | 2 | CHOLESTASE_PROLONGEE CHOLANGITE #CBP | Allergic | 2 | 1 | 20 | 1 | 4 | 12 hours - 2 months | 0 | 2 | 26 | 0 | 0% | 3.4% | 2 | –
6 | O=c1[nH]c(=O)n([C@H]2C[C@H](O)[C@@H](CO)O2)cc1F [FLOXURIDINE] | yes | 0 | yes | 2 | CHOLECYSTITE_ACALCULEUSE CHOLANGITE/IAH #CBP | Dose-dependant | 4 | 0 | 7 | 0 | 25 | 3 cures - 12 cures | 3 | 2 | 9 | 0 | 60% | 100% | 3 | –
7 | CC(C)C(=O)Nc1ccc([N+](=O)[O-])c(C(F)(F)F)c1 [FLUTAMIDE] | yes | 0 | yes | 0 | AC_ANTI-N | Allergic, Reactive metabolite, Dose-dependant | 0 | 0 | 7 | 0 | 21 | 3 days - 10 months | 0 | 21 | 31 | 0 | 10% | 41.2% | 16 | –
8 | FC(F)(F)C(Cl)Br (centres undefined) [HALOTHANE] | yes | 0 | yes | 1 | AC_ANTI-MFR1/-TFA RC/METHOXYFLURANE/ENFLURANE | Allergic, Toxic Metabolite | 2 | 2 | 7 | 3 | 24 | 1 day - 3 months | 0 | 31 | 99 | 0 | 0% | 33% | 35 | –
9 | CC(C)NNC(=O)c1ccncc1 [IPRONIAZID] | yes | 0 | yes | 0 | AC_ANTI-M6 RC/PHENIPRAZINE | Allergic, Reactive metabolite | 3 | 0 | 3 | 3 | 2 | 3 days - 1 year | 0 | 28 | 30 | 0 | 1.4% | 30% | 18 | –
10 | CC(C)Nc1ncccn1 [ISAXONINE] | yes | 0 | yes | 1 | AC_ANTI-MFR1 | Allergic, Reactive metabolite | 0 | 1 | 3 | 0 | 0 | 1 month - 6 months | 0 | 13 | 13 | 0 | 0% | 0% | 4 | –
11 | FC(F)OC(Cl)C(F)(F)F (centres undefined) [ISOFLURANE] | yes | 0 | yes | 2 | AC_ANTI-MFR/-TFA I/ALCOOL | Allergic, Reactive metabolite | 0 | 0 | 1 | 0 | 5 | < 1 day - 3 weeks | 0 | 20 | 25 | 0 | 0% | 13.3% | 11 | –
